The values that follow come from PubChem BioAssay AID1963852 (Molecular Pharmacology Branch, DTP, NCI, 2024).

The test system of the test is 282377-053-R-J1-PDC complex spheroid viability. Briefly: Anticancer human tumor 282377-053-R-J1-PDC patient-derived colon adenocarcinoma cell line growth inhibition [POLQ]. The settings on record: for viability, T/C: stronger effect = lower value. As to the method: Multicellular complex tumor spheroid response to Polymerase (POL) inhibitors (novobiocin, ART-558, RP6685) in combination with a variety of drugs and investigational agents in selected tumor cell lines
The POL inhibitors (novobiocin, ART-558, and RP6685) were evaluated both individually and in combination with standard of care and investigational anticancer small molecules within a complex spheroid model of solid tumors. . Complex spheroids include a stromal component modeled by human endothelial cells (HUVEC) and fibroblasts modeled by human mesenchymal stem cells (MSCs). The concentration ranges selected for each drug and investigational agent were based upon clinically achievable concentrations if the clinical Cmax of the agent was known.
Compounds. The drugs and investigational agents: novobiocin (NSC847541), ART-558 (NSC835418), RP-6685 (NSC848927), peposertib (NSC802822), ceralasertib (NSC780249), elimusertib (NSC800525), camonsertib (NSC841442), AZD-1390 (NSC803789), olaparib (NSC753686), talazoparib (NSC767125), rucaparib (NSC756644), sotorasib (NSC818433), MRTX-1133 (NSC836407), SN-38 (NSC673596), topotecan (NSC609699), epotoside (NSC141540), doxorubicin (NSC123127), gemcitabine (NSC613327), 5-fluorouracil (NSC19893), paclitaxel (NSC125973), vemurafenib (NSC761431), MSA-2 (NSC828583), SN-011 (NSC837082), adavosertib (NSC754352), prexasertib (NSC758257), carboplatin (NSC241240) and oxaliplatin (NSC266046), were obtained from the National Cancer Institute (NCI) Developmental Therapeutics Program Chemical Repository (21). The FDA-approved anticancer drug set is available from the Developmental Therapeutics Program at https://dtp.cancer.gov/organization/dscb/obtaining/. […] The stock solutions were prepared in dimethyl sulfoxide (DMSO, Sigma-Aldrich, St. Louis, MO, cat. D2650), except for the platinum compounds which were prepared in saline (Quality Biological, Gaithersburg, MD, cat. 114-055-101), at 800-fold the tested concentration and stored at -70 degrees C prior to their use. All drugs and investigational agents were tested over a range starting from a high concentration at or near the clinical Cmax and decreasing in half-log increments. If the clinical Cmax for an agent had not been determined, the highest concentration tested was 10 microM, except for SN-38, which was tested at a high concentration of 1 microM.
Cell Culture. All cells were maintained in an incubator at 37 degrees C and 5% CO2 with 95% humidity. The PDC lines were cultured according to standard operating procedures established by the NCI PDMR (https://pdmr.cancer.gov). Table 3 of the manuscript, lists the cell lines along with the number of the three cell types plated to form the mct-spheroids and media for tumor cell growth. After thawing, all PDC lines, except 997537-175-T-J1-PDC and 415267-285-R-J2-PDC, were cultured in Matrigel-coated flasks prepared with a working solution of 1X Ham's F-12 nutrient mix, without supplementation (Thermo Fisher Scientific, cat. 11765054), 100 U/mL penicillin-streptomycin (Thermo Fisher Scientific, cat. 15140122), and 2.5% Matrigel (Corning Inc., Corning, NY, cat. 354248) for the first three passages. The two PDC lines 997537-175-T-J1-PDC and 415267-285-R-J2-PDC were cultured on uncoated flasks. The 857933-349-R-J2-PDC line was cultured in 6C/Colon 1B media containing advanced DMEM/F-12 (Thermo Fisher Scientific, cat. 12634028), 10 mM HEPES (Thermo Fisher Scientific, cat. 15630080), 1X GlutaMAX supplement (Thermo Fisher Scientific, cat. 35050061), 0.1 mg/mL primocin (InvivoGen, San Diego, CA, cat. ant-pm-2), 10% defined fetal bovine serum, heat inactivated (HyClone Laboratories Inc., Logan, UT, cat. SH30070.03HI), 50% L-WRN conditioned media (ATCC, cat. CRL-3276), 1.25 mM N-Acetyl-L-cysteine (Sigma-Aldrich, cat. A9165), 10 mM nicotinamide (Sigma-Aldrich, cat. N0636), 1X B-27 supplement (Thermo Fisher Scientific, cat. 17504044), 1X N-2 supplement (Thermo Fisher Scientific, cat. […]

By viability, T/C is commonly meant the result in the treated group divided by that in the control group, in per cent. As a reminder, the pIC50 is −log10 of the IC50, conventionally taken in molar units.

The structures appear in SMILES notation. pIC50: −log10 of the molar value. Where “and” joins values, the source holds several entries; their conditions need not be identical. Equal values may be shown once.
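Further: spheroids exposed to compounds for seven days.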

Consider `COc1cc(C2c3cc4c(cc3C(OC3OC5COC(C)OC5C(O)C3O)C3COC(=O)C23)OCO4)cc(OC)c1O` (stereo unspecified), for which the viability, T/C (compound 0.0316 µM) was 86.7% and 90% and 76.8%; the viability, T/C (compound 0.1 µM) is 108% and 96.2% and 104%; the viability, T/C (compound 0.316 µM) was 94.2% and 108% and 83%; the viability, T/C (compound 1 µM) is 124% and 104% and 96.8%; the viability, T/C (compound 3.16 µM) was 82.7% and 105% and 70.8%; the viability, T/C (compound 10 µM) is 58% and 81.8% and 50.9%. Moreover, under “curve of compound”, the pIC50 was < 5.00.
In the case of `Cn1ncnc1[C@H]1c2n[nH]c(=O)c3cc(F)cc(c23)N[C@@H]1c1ccc(F)cc1` + Nc1ccc(C#CCN(C(=O)Cc2ncc(C(F)(F)F)cc2C(F)(F)F)c2ccc(F)cc2)nn1, the pIC50 runs as follows: (curve of first compound, second compound 0.0316 µM) < 7.00; (curve of first compound, second compound 0.1 µM) < 7.00; (curve of first compound, second compound 0.316 µM) < 7.00; (curve of first compound, second compound 1 µM) < 7.00; (curve of first compound, second compound 3.16 µM) < 7.00; (curve of first compound, second compound 10 µM) < 7.00. In addition, the viability, T/C runs as follows: (second compound 0.0316 µM, first compound 0.000316 µM) 98.9%; (second compound 0.0316 µM, first compound 0.001 µM) 94.9%; (second compound 0.0316 µM, first compound 0.00316 µM) 91.9%; (second compound 0.0316 µM, first compound 0.01 µM) 101%; (second compound 0.0316 µM, first compound 0.0316 µM) 108%; (second compound 0.0316 µM, first compound 0.1 µM) 94.3%. The viability, T/C (second compound 0.1 µM, first compound 0.000316 µM) was 105%; the viability, T/C (second compound 0.1 µM, first compound 0.001 µM) is 108%; the viability, T/C (second compound 0.1 µM, first compound 0.00316 µM) is 84.1%; the viability, T/C (second compound 0.1 µM, first compound 0.01 µM) was 97.3%; the viability, T/C (second compound 0.1 µM, first compound 0.0316 µM) was 100%; the viability, T/C (second compound 0.1 µM, first compound 0.1 µM) was 81.9%. Also, the viability, T/C was 99% (second compound 0.316 µM, first compound 0.000316 µM); 93.7% (second compound 0.316 µM, first compound 0.001 µM); 108% (second compound 0.316 µM, first compound 0.00316 µM); 93.8% (second compound 0.316 µM, first compound 0.01 µM); 97.7% (second compound 0.316 µM, first compound 0.0316 µM); 95.2% (second compound 0.316 µM, first compound 0.1 µM). Also, the viability, T/C (second compound 1 µM, first compound 0.000316 µM) was 102%; the viability, T/C (second compound 1 µM, first compound 0.001 µM) was 96.8%; the viability, T/C (second compound 1 µM, first compound 0.00316 µM) is 94.5%; the viability, T/C (second compound 1 µM, first compound 0.01 µM) is 86.9%; the viability, T/C (second compound 1 µM, first compound 0.0316 µM) was 103%; the viability, T/C (second compound 1 µM, first compound 0.1 µM) was 104%. The viability, T/C reads like this: (second compound 3.16 µM, first compound 0.000316 µM) 105%; (second compound 3.16 µM, first compound 0.001 µM) 100%; (second compound 3.16 µM, first compound 0.00316 µM) 100%; (second compound 3.16 µM, first compound 0.01 µM) 110%; (second compound 3.16 µM, first compound 0.0316 µM) 113%; (second compound 3.16 µM, first compound 0.1 µM) 93.9%. Also, the viability, T/C (second compound 10 µM, first compound 0.000316 µM) was 122%; the viability, T/C (second compound 10 µM, first compound 0.001 µM) was 119%; the viability, T/C (second compound 10 µM, first compound 0.00316 µM) is 121%; the viability, T/C (second compound 10 µM, first compound 0.01 µM) is 119%; the viability, T/C (second compound 10 µM, first compound 0.0316 µM) is 111%; the viability, T/C (second compound 10 µM, first compound 0.1 µM) is 127%.
In the case of `O=C(Nc1ccc(O)c(NS(=O)(=O)c2ccc(F)cc2)c1)c1ccc(-c2ccccc2)cc1`, the viability, T/C runs as follows: (compound 0.0316 µM) 110% and 91.2% and 91.8%; (compound 0.1 µM) 98.8% and 86.6% and 102%; (compound 0.316 µM) 108% and 92.9% and 112%; (compound 1 µM) 113% and 95.5% and 102%; (compound 3.16 µM) 116% and 112% and 121%; (compound 10 µM) 116% (2×) and 109%. For the same compound, the negative logarithm of the IC50 (pIC50) (curve of compound) was < 5.00.
